Reference: patent US20250057819A1, “DRUG COMBINATIONS FOR INHIBITING CORONAVIRUS REPLICATION” (priority 2021, published 2025)
Counter-ions that a name gives are not always drawn. Like-named read-outs stand apart in the source and are kept apart here.

Legend:
rHCoVs-OC43 = assay: organism not typed; type: cell-based
[1] = Cell viability assay (MTT) in HRT-18 cells; settings: human, CC50 (μM)
SARS-CoV-2 = assay: microbe, parasite or virus in culture; type: cell-based; settings: Severe acute respiratory syndrome coronavirus 2, Huh7.5, 48 h; read-out: SARS-CoV-2 EC50
[2] = Cell viability assay (MTT) in Huh7.5 cells; type: cell-based, human; settings: human, Huh7.5 cells, Huh7.5 (B), read-out: SARS-CoV-2 CC50
Experimental: Cell viability was monitored by a mitochondrial activity test using methyl-thiazolyl-tetrazolium (MTT, Sigma). After 48 hours of drug treatment, cells were treated with 1 mg/ml of MTT during 3 hours at 37° C. The supernatants were removed and the MTT crystals were dissolved using DMSO and a shaker. The absorbance was read with a Tecan Spark at 570 nm with reference at 650 nm.
Only the most promising molecules or those studied in synergy were tested in Calu3 cells.

HRT-18 cells = assay: Cell viability assay (MTT) in HRT-18 cells; settings: drug alone; HRT-18 cells, 48 h treatment, MTT
[3] = drug alone, HRT-18 cells, MOI 0.025, 48 h treatment, decrease of Rluc, read-out: EC50
[4] = drug alone, HRT-18 cells, 48 h treatment, MTT
[5] = 48 h, drug 2 alone (fast synergy screening table), read-out: IC50
[6] = drug 2 alone (fast synergy screening table), read-out: IC50
[7] = drug 2 alone (fast synergy screening table)

| SMILES | EC50 (rHCoVs-OC43; [3]) | CC50 at 48 h [1, 4] | CC50 at 48 h [1, 7] | further results |
| --- | --- | --- | --- | --- |
| CCCCCCCCCC(=O)OC1(c2ccc(Cl)cc2)CCN(CCCC(=O)c2ccc(F)cc2)CC1 [Haloperidol decanoate] | > 10000 nM | > 10 µM | – | – |
| Clc1ccc(C(Cn2ccnc2)OCc2ccsc2Cl)c(Cl)c1 (centres unmarked) [Tioconazole] | – | > 10 µM | – | EC50 (rHCoVs-OC43; HRT-18, 48 h): 4100 nM |
| Cn1cc(C2=C(c3cn(C4CCN(Cc5ccccn5)CC4)c4ccccc34)C(=O)NC2=O)c2ccccc21 [Enzastaurin hydrochloride] | 2800 nM | > 10 µM | – | – |
| C=CC[C@@H]1/C=C(\C)C[C@H](C)C[C@H](OC)[C@H]2O[C@@](O)(C(=O)C(=O)N3CCCC[C@H]3C(=O)O[C@H](/C(C)=C/[C@@H]3CC[C@@H](O)[C@H](OC)C3)[C@H](C)[C@@H](O)CC1=O)[C@H](C)C[C@@H]2OC [Tacrolimus hydrate] | 3300 nM | > 10 µM | – | – |
| CNCC[C@H](Oc1cccc2ccccc12)c1cccs1 [Duloxetine hydrochloride] | – | > 10 µM | – | EC50 (rHCoVs-OC43; HRT-18, 48 h): 4800 nM |
| CC(C)/N=c1\cc2n(-c3ccc(Cl)cc3)c3ccccc3nc-2cc1Nc1ccc(Cl)cc1 [Clofazimine] | 1800 nM | > 10 µM | > 10 µM | IC50 (rHCoVs-OC43; [5]): 1800 nM; IC50 (rHCoVs-OC43; [6]): 1800 nM |
| CN(C)CCCN1c2ccccc2Sc2ccc(Cl)cc21 [chlorpromazine] | 5100 nM | > 10 µM | – | – |
| CN(C)CCOc1ccc(/C(=C(/CCCl)c2ccccc2)c2ccccc2)cc1 [Toremifene Citrate] | 2600 nM | > 10 µM | > 10 µM | IC50 (rHCoVs-OC43; 48 h): 2600 nM |
| CCCCCCCCCCC[C@@H](C[C@@H]1OC(=O)[C@H]1CCCCCC)OC(=O)[C@H](CC(C)C)NC=O [Orlistat] | 7300 nM | > 10 µM | – | – |
| CCN(CC)CCCC(C)Nc1ccnc2cc(Cl)ccc12 (centres unmarked) [Chloroquine] | 66 nM | – | – | IC50 (rHCoVs-OC43; [5]): 66 nM |
| CN[C@H]1CC[C@@H](c2ccc(Cl)c(Cl)c2)c2ccccc21 [Sertraline hydrochloride] | – | > 10 µM | > 10 µM | – |
| NC(=O)c1ncn([C@@H]2O[C@H](CO)[C@@H](O)[C@H]2O)n1 [Ribavirin] | 1000 nM | > 10 µM | > 10 µM | IC50 (rHCoVs-OC43): 1000 nM; IC50 (rHCoVs-OC43; 48 h): 1000 nM |
| C#C[C@]1(O)CC[C@H]2[C@@H]3CCC4=Cc5oncc5C[C@]4(C)[C@H]3CC[C@@]21C [Danazol] | 1000 nM | > 10 µM | > 10 µM | IC50 (rHCoVs-OC43; [5]): 1000 nM; IC50 (rHCoVs-OC43; [6]): 1000 nM; EC50 (SARS-CoV-2): 830 nM; CC50 at 48 h [2]: > 10000 nM |
| OCCN(CCO)c1nc(N2CCCCC2)c2nc(N(CCO)CCO)nc(N3CCCCC3)c2n1 [Dipyridamole] | 4100 nM | > 10 µM | – | – |
| CCN(CC)C(=S)SSC(=S)N(CC)CC [Disulfiram] | 180 nM | 0.23 µM | – | – |
| C[C@H]1O[C@@H](O[C@H]2[C@@H](O)C[C@H](O[C@H]3[C@@H](O)C[C@H](O[C@H]4CC[C@@]5(C)[C@H](CC[C@@H]6[C@@H]5C[C@@H](O)[C@]5(C)[C@@H](C7=CC(=O)OC7)CC[C@]65O)C4)O[C@@H]3C)O[C@@H]2C)C[C@H](O)[C@@H]1O [Digoxin] | 28 nM | – | – | IC50 (rHCoVs-OC43; 48 h): 28 nM |
| CN(C)[C@@H](CCOc1cccc2ccccc12)c1ccccc1 [Dapoxetine hydrochloride] | 4700 nM | > 10 µM | – | – |
| Cc1cc(/C=C/C#N)cc(C)c1Nc1ccnc(Nc2ccc(C#N)cc2)n1 [Rilpivirine] | > 10000 nM | 10 µM | – | – |
| C[C@@H]1O[C@@H](O[C@H]2C[C@@H](O)[C@]3(CO)[C@H]4[C@H](O)C[C@]5(C)[C@@H](C6=CC(=O)OC6)CC[C@]5(O)[C@@H]4CC[C@]3(O)C2)[C@H](O)[C@H](O)[C@H]1O [Ouabain] | 16 nM | 0.028 µM | 0.028 µM | IC50 (rHCoVs-OC43; [5]): 16 nM |
| C=C1/C(=C\C=C2/CCC[C@]3(C)[C@@H]([C@H](C)CCCC(C)C)CC[C@@H]23)C[C@@H](O)C[C@@H]1O [Alfacalcidol] | 1700 nM | > 10 µM | > 10 µM | IC50 (rHCoVs-OC43; [5]): 1700 nM; IC50 (rHCoVs-OC43; [6]): 1700 nM |
| COC(=O)C1=C(C)NC(C)=C(C(=O)OCCN2CCN(C(c3ccccc3)c3ccccc3)CC2)C1c1cccc([N+](=O)[O-])c1 (centres unmarked) [Manidipine dihydrochloride] | 4500 nM | > 10 µM | > 10 µM | IC50 (rHCoVs-OC43; [5]): 4500 nM; IC50 (rHCoVs-OC43; [6]): 4500 nM |
| CC(C)COc1ccc(CNC(=O)N(Cc2ccc(F)cc2)C2CCN(C)CC2)cc1 [Pimanavserin] | 6000 nM | – | – | CC50 (HRT-18 cells): > 10000 nM |
